Reference: patent US20230079100A1, “PROCESS FOR PREPARING SOLID FORMULATIONS COMPRISING A HYDROPHOBIC COMPOUND DISPERSIBLE IN A COLD LIQUID AND RELATIVE SOLID FORMULATIONS” (NUTRILINEA S.R.L., priority 2020, published 2023)

Columns and labels:
[1] = Visual evaluation of the degree of wettability of solid formulations poured into water; type: physicochemical; conditions: for Visual degree of wettability of the solid formulation: process of the invention, fluid bed, 1.5 g in 100 ml water at room temperature
[2] = Static contact angle of ultrapure water on sample pelleted or deposited as film (Krüss Easy Drop); type: physicochemical; conditions: 8 μL milliQ water drop, mean with standard deviation, 0 = complete wettability; for Contact angle on pellet: pelleted sample; for Contact angle on film (°): sample deposited as film
Experimental: 1.4 Contact angle measurements on hydrophobic substrates treated according to the process of the present invention (see section 1 of the experimental part).
The experimental measurements reported hereinafter relate to the study of the wettability characteristics of powdered samples before and after the process according to the present invention. The determination of the static contact angle of ultrapure water (also referred to as grade 1) was carried out on the surface of the sample pelleted or deposited in the form of film, according to methods known in the state of the art and as reported in [1] Nowak et al. Powder Technology 233 (2013) 52-64, e in [2] Bachmann and McHale, European Journal of Soil Science, 60 (2009) 420-430. The determinations were carried out using a Krüss Easy Drop instrument using drops of 8 μL of milliQ water. The behaviour of the drop in the first seconds from the deposition was analysed by recording 30-second video at 25 fps (frames per second): the contact angle considered is the equilibrium value or the final one at the end of the recording. Each sample was analysed both deposited in the form of film and pelleted and at least 3 independent contact angle determinations were carried out for each sample.
5 different types of powders were analysed; each of them was analysed both in the unmodified form thereof (as such) and after the process according to the present invention. In the case of the PEA (Palmitoylethanolamide) powder, a second batch of sample was analysed, for which only measurements on film were carried out. The results of the determinations are reported in Table IV: the mean contact angle value with standard deviation relative to the measurements on pellet and on film are reported. In case of complete wettability of the sample, an angle of 0° is reported. Overall, a greater correspondence of the wettability data measured on film with the dispersibility data observed experimentally (visual observation) is observed. This observation is in good agreement with the literature; the less representativeness of the measurements on pellets can be linked in some cases to absorption phenomena linked to the porosity of the pellet or to alterations of the surface free energy of the powder during pelletisation due to the applied pressure.

[3] = comparison process (A) dry mixing in a cube (1 kg), charging agent maltodextrin, 50%/50%
[4] = comparison process (A) dry mixing in a cube (1 kg), charging agent maltodextrin, 70%/30%
[5] = comparison process (A) dry mixing in a cube (1 kg), charging agent mannitol, 50%/50%
[6] = comparison process (A) dry mixing in a cube (1 kg), charging agent mannitol, 70%/30%
[7] = comparison process (A) dry mixing in a cube (1 kg), charging agent sugar, active/charging agent 50%/50%
[8] = comparison process (A) dry mixing in a cube (1 kg), charging agent sugar, active/charging agent 70%/30%
[9] = comparison process (B) wet granulations (1.5 kg), charging agent maltodextrin, 50%/50%
[10] = comparison process (B) wet granulations (1.5 kg), charging agent maltodextrin, 70%/30%
[11] = comparison process (B) wet granulations (1.5 kg), charging agent mannitol, 50%/50%
[12] = comparison process (B) wet granulations (1.5 kg), charging agent mannitol, 70%/30%
[13] = comparison process (B) wet granulations (1.5 kg), charging agent sugar, 50%/50%
[14] = comparison process (B) wet granulations (1.5 kg), charging agent sugar, 70%/30%
[15] = comparison process (C) wet granulation in a fluid bed granulator (1.5 kg), atomised water about 300-400 g, charging agent maltodextrin, 50%/50%
[16] = comparison process (C) wet granulation in a fluid bed granulator (1.5 kg), atomised water about 300-400 g, charging agent maltodextrin, 70%/30%
[17] = comparison process (C) wet granulation in a fluid bed granulator (1.5 kg), atomised water about 300-400 g, charging agent sugar, 50%/50%
[18] = comparison process (C) wet granulation in a fluid bed granulator (1.5 kg), atomised water about 300-400 g, charging agent sugar, 70%/30%
[19] = comparison process (C) wet granulation in a fluid bed granulator, atomised water about 300-400 g, charging agent mannitol, 50%/50%
[20] = comparison process (C) wet granulation in a fluid bed granulator, atomised water about 300-400 g, charging agent mannitol, 70%/30%
[21] = comparison process (D.a) granulation in a powder kneader (1 kg), active 90% w/w + liquid polysorbate 80 pure 10% w/w
[22] = comparison process (D.b) mixing in a cube (1 kg), active 90% w/w + powder sucrester 10% w/w
[23] = comparison process (E) wet granulation in a fluid bed granulator, active 90% + aqueous solution of polysorbate 80 at 10% w/w, 10%
[24] = solid substrate 90% w/w (900 g) + liquid polysorbate 80 pure at 100% 10% w/w (100 g)
[25] = solid substrate 93% w/w (930 g) + liquid polysorbate 80 pure at 100% 7% w/w (70 g)
[26] = solid substrate 95% w/w (950 g) + liquid polysorbate 80 pure at 100% 5% w/w (50 g)

Row | Molecule | Visual degree of wettability of the active component [1, 3] | Visual degree of wettability of the active component [1, 4] | Visual degree of wettability of the active component [1, 5] | Visual degree of wettability of the active component [1, 6] | Visual degree of wettability of the active component [1, 7] | Visual degree of wettability of the active component [1, 8] | Visual degree of wettability of the active component [1, 9] | Visual degree of wettability of the active component [1, 10] | Visual degree of wettability of the active component [1, 11] | Visual degree of wettability of the active component [1, 12] | Visual degree of wettability of the active component [1, 13] | Visual degree of wettability of the active component [1, 14] | Visual degree of wettability of the active component [1, 15] | Visual degree of wettability of the active component [1, 16] | Visual degree of wettability of the active component [1, 17] | Visual degree of wettability of the active component [1, 18] | Visual degree of wettability of the active component [1, 19] | Visual degree of wettability of the active component [1, 20] | Visual degree of wettability of the active component [1, 21] | Visual degree of wettability of the active component [1, 22] | also measured
1 | CCCCCCCCCCCCCCCC(=O)NCCO [PEA, Palmitoylethanolamide] | Nil | Nil | Nil | Nil | Nil | Nil | Nil/low | Nil/low | Nil/low | Nil/low | Nil/low | Nil/low | Low/Sufficient | Low | Low/Sufficient | Low | Low/Sufficient | Low | Low/Sufficient | Nil | Visual degree of wettability of the active component [1, 23]: Low/Sufficient; Visual degree of wettability of the solid formulation [1, 24]: Excellent; Visual degree of wettability of the solid formulation [1, 25]: Fair; Visual degree of wettability of the solid formulation [1, 26]: Fair; Contact angle on pellet [2]: 72 ± 4 °; Contact angle on film (°) ([2]; listed as PEA as such): 117 ± 7 °; Contact angle on film (°) ([2]; listed as PEA as such second batch): 114 ± 5 °
2 | alpha-lactalbumin | Nil | Nil | Nil | Nil | Nil | Nil | Nil/low | Nil/low | Nil/low | Nil/low | Nil/low | Nil/low | Low/Sufficient | Low | Low/Sufficient | Low | Low/Sufficient | Low | Low/Sufficient | Nil | Visual degree of wettability of the active component [1, 23]: Low/Sufficient; Visual degree of wettability of the solid formulation [1, 24]: Excellent; Visual degree of wettability of the solid formulation [1, 25]: Fair; Visual degree of wettability of the solid formulation [1, 26]: Fair; Contact angle on pellet [2]: 61 ± 6 °; Contact angle on film (°) [2]: 69 ± 3 °
